Measured values: patent US7727980B2, “Tricyclic androgen receptor modulator compounds and methods” (priority 2001, dated 2010)
Where two headings read alike, the source gives them in different places.

Assays:
human AR [1] = target: T1, human AR (Homo sapiens, UniProt P10275); assay: Co-transfection assay, AR agonist activity, CV-1 cells; format: cell-based; parameters: expressed in transfected cells; host or cells: CV-1 cells (African green monkey kidney fibroblasts), transient transfection with pRShAR; conditions: for AR Agonist CV-1 Cells Efficacy (%): percent maximal response relative to reference agonist DHT
T1 sequence (P10275 1-920): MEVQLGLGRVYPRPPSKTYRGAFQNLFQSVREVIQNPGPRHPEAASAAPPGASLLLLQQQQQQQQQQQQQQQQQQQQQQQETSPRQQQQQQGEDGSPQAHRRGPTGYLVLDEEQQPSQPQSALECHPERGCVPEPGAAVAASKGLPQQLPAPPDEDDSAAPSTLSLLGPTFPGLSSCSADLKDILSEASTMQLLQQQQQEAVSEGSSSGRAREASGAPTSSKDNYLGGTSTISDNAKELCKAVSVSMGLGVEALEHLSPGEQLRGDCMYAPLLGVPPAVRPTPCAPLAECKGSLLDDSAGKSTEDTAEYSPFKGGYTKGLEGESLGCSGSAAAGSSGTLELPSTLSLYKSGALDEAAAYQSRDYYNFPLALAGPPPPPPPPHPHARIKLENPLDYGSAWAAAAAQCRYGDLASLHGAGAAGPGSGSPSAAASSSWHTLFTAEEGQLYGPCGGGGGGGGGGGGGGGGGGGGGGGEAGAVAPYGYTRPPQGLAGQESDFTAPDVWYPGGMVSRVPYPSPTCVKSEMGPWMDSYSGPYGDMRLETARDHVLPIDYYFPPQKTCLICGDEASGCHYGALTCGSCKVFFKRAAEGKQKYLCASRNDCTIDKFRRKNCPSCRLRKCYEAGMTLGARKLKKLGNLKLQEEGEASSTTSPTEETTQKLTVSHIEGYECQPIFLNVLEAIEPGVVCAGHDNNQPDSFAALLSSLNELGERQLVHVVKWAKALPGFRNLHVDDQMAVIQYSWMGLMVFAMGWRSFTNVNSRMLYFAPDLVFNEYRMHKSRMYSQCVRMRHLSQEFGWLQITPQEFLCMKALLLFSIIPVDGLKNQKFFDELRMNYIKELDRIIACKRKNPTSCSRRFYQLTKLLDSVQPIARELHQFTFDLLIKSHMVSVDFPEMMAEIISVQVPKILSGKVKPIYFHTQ
From the text: (§1) The co-transfection assay provides a method for identifying functional agonists and partial agonists which mimic, or antagonists which inhibit, the effect of native hormones and quantifying their activity for responsive IR proteins. In this regard, the co-transfection assay mimics an in vivo system in the laboratory. Importantly, activity in the co-transfection assay correlates very well with known in vivo activity, such that the co-transfection assay functions as a qualitative and quantitative predictor of a tested compounds in vivo pharmacology. See, e.g., T. Berger et al. 41 J. Steroid Biochem. Molec.
(§2) In the co-transfection assay, a cloned cDNA for an IR (e.g., human PR, AR or GR) under the control of a constitutive promoter (e.g., the SV 40 promoter) is introduced by transfection (a procedure to induce cells to take up foreign genes) into a background cell substantially devoid of endogenous IRs. This introduced gene directs the recipient cells to make the IR protein of interest. A second gene is also introduced (co-transfected) into the same cells in conjunction with the IR gene. This second gene, comprising the cDNA for a reporter protein, such as firefly luciferase (LUC), controlled by an appropriate hormone responsive promoter containing a hormone response element (HRE). This reporter plasmid functions as a reporter for the transcription-modulating activity of the target IR. Thus, the reporter acts as a surrogate for the products (mRNA then protein) normally expressed by a gene under control of the target receptor and its native hormone.
(§3) The co-transfection assay can detect small molecule agonists or antagonists of target IRs. Exposing the transfected cells to an agonist ligand compound increases reporter activity in the transfected cells. This activity can be conveniently measured, e.g., by increasing luciferase production, which reflects compound-dependent, IR-mediated increases in reporter transcription. […] To detect antagonists, the co-transfection assay is carried out in the presence of a constant concentration of an agonist to the target IR (e.g., progesterone for PR) known to induce a defined reporter signal. Increasing concentrations of a suspected antagonist will decrease the reporter signal (e.g., luciferase production). The co-transfection assay is therefore useful to detect both agonists and antagonists of specific IRs. Furthermore, it determines not only whether a compound interacts with a particular IR, but whether this interaction mimics (agonizes) or blocks (antagonizes) the effects of the native regulatory molecules on target gene expression, as well as the specificity and strength of this interaction.
(§4) CV-1 cells (African green monkey kidney fibroblasts) were cultured in the presence of Dulbecco's Modified Eagle Medium (DMEM) supplemented with 10% charcoal resin-stripped fetal bovine serum then transferred to 96-well microtiter plates one day prior to transfection.
(§5) The reporter plasmid, MTV-LUC, contains the cDNA for firefly luciferase (LUC) under control of the mouse mammary tumor virus (MTV) long terminal repeat, a conditional promoter containing an androgen response element. See e.g., Berger et al. supra. In addition, pRS-β-Gal, coding for constitutive expression of E. coli β-galactosidase (β-Gal), was included as an internal control for evaluation of transfection efficiency and compound toxicity.
(§6) Six hours after transfection, media was removed and the cells were washed with phosphate-buffered saline (PBS). […] Three to four replicates were used for each sample. Transfections and subsequent procedures were performed on a Biomek 1000 automated laboratory work station.
(§7) After 40 hours, the cells were washed with PBS, lysed with a Triton X-100-based buffer and assayed for LUC and β-Gal activities using a luminometer or spectrophotometer, respectively. For each replicate, the normalized response (NR) was calculated as: LUC response/β-Gal rate • where β-Gal rate=β-Gal·1×10^−5/β-Gal incubation time.

human AR [2] = target: T1, human AR; assay: AR whole cell competitive binding assay (3H-DHT), transfected COS-1 cells; parameters: expressed in transfected cells; transient transfection with pRShAR
Procedure: AR Binding: For the whole cell binding assay, COS-1 cells in 96-well microtiter plates containing DMEM-10% FBS were transfected as described above with the following plasmid DNA: pRShAR (2 ng/well), pRS-β-Gal (50 ng/well) and pGEM (48 ng/well). Six hours after transfection, media was removed, the cells were washed with PBS and fresh media was added. The next day, the media was changed to DMEM-serum free to remove any endogenous ligand that might be complexed with the receptor in the cells.
Three replicates were used for each sample. […] The remaining media was removed, the cells were washed three times with PBS to remove unbound ligand and cells were lysed with a Triton X-100-based buffer.
For the saturation analyses, the difference between the total binding and the nonspecific binding, normalized by the β-Gal rate, was defined as specific binding. […] The Ki values were determined by application of the Cheng-Prusoff equation to the IC50 values, where: […]
After correcting for non-specific binding, IC50 values were determined. […] The IC50 value was determined graphically from a log-logit plot of the data. The Ki values were determined by application of the Cheng-Prusoff equation to the IC50 values, the labeled ligand concentration and the Kd of the labeled ligand.

human AR [3] = target: T1, human AR; assay: Co-transfection assay, AR antagonist activity in presence of DHT, CV-1 cells; format: cell-based; parameters: expressed in transfected cells; host or cells: CV-1 cells (African green monkey kidney fibroblasts), transient transfection with pRShAR; conditions: for AR Antagonist CV-1 Cells Efficacy (%): percent maximal inhibition, DHT at its EC50 concentration
From the text: as §1, §2, §3, §4, §5, §6, §7

[4] = AR Agonist CV-1 Cells Potency (nM), agonist potency or EC50
[5] = AR Binding Ki (nM), COS-1 cells, 1 nM 3H-DHT, Cheng-Prusoff from IC50
[6] = AR Antagonist CV-1 Cells Potency (nM), CV-1 cells, antagonist potency or IC50, DHT at its EC50 concentration
[7] = agonist potency or EC50, read-out: AR Agonist CV-1 Cells Potency
[8] = COS-1 cells, 1 nM 3H-DHT, Cheng-Prusoff from IC50, read-out: AR Binding Ki
[9] = CV-1 cells, antagonist potency or IC50, DHT at its EC50 concentration, read-out: AR Antagonist CV-1 Cells Potency

| Compound | EC50 (human AR [1]; [4]) | AR Agonist CV-1 Cells Efficacy (%) (human AR [1]) | Ki (human AR [2]; [5]) | IC50 (human AR [3]; [6]) | AR Antagonist CV-1 Cells Efficacy (%) (human AR [3]; CV-1 cells) | EC50 (human AR [1]; [7]) | Ki (human AR [2]; [8]) | IC50 (human AR [3]; [9]) | Ki (human AR [2]; read-out: AR Binding Ki) | IC50 (human AR [3]) |
| --- | --- | --- | --- | --- | --- | --- | --- | --- | --- | --- |
| CCCN1CCCc2cc3[nH]c(=O)cc(C(F)(F)F)c3cc21 [Compound 199, 4-Trifluoromethyl-6-propyl-6,7,8,9-tetrahydropyrido[2,3-g]quinolin-2(1H)-one] | 42 nM | 70% | 236 nM | > 10000 nM | na (na = not active (i.e. efficacy of <20 and potency of >10,000)) |  |  |  |  |  |
| O=c1cc(C(F)(F)F)c2c3c(ccc2[nH]1)N(CC(F)(F)F)C1CCCC31 (single isomer, unassigned; (+)) [Compound 178, (+)-4c,5,6,7,7a(cis),8-Hexahydro-8-(2,2,2-trifluoroethyl)-4-trifluoromethylcyclopentano-[g]pyrrolo[3,2-f]quinolin-2(1H)-one] | 21 nM | 24% | 900 nM | 50 nM | 48% |  |  |  |  |  |
| 6-Ethyl-5-methyl-7-(2,2,2-trifluoroethyl)-7H-pyrrolo[3,2-f]quinolin-2(1H)-one [Compound 151] |  | 36% |  |  | 57% | 120 nM | 48 nM | 5.9 nM |  |  |
| CCCN1c2ccc3[nH]c(=O)cc(C(F)(F)F)c3c2C2CCCC21 (racemic) [Compound 125, (±)-4c,5,6,7,7a(cis),8-Hexahydro-8-propyl-4-trifluoromethylcyclopentano-[g]pyrrolo-[3,2-f]quinolin-2(1H)-one] | 38 nM | 121% | 1.3 nM | > 10000 nM | na (na = not active (i.e. efficacy of <20 and potency of >10,000)) |  |  |  |  |  |
| CCN1c2cc3c(C(F)(F)F)cc(=O)[nH]c3cc2C2CCCC21 (racemic) [Compound 122, (±)-6,6a 7,8,9,9a(cis)-Hexahydro-6-ethyl-4-trifluoromethylcyclopentano-[i]pyrrolo[2,3-g]quinolin-2(1H)-one] | 34 nM | 59% | 21 nM | > 10000 nM | na (na = not active (i.e. efficacy of <20 and potency of >10,000)) |  |  |  |  |  |
| CCC1C(C)c2c(ccc3[nH]c(=O)ccc23)N1CC(F)(F)F (racemic) [Compound 149, (±)-5,6-cis-Dihydro-5-methyl-6-ethyl-7-(2,2,2-trifluoroethyl)-7H-pyrrolo[3,2-f]quinolin-2(1H)-one] | > 10000 nM | na (na = not active (i.e. efficacy of <20 and potency of >10,000)) |  |  | 81% |  |  |  | 127 nM | 25 nM |
| 5-Isopropyl-6-methyl-4-trifluoromethyl-7H-pyrrolo[3,2-f]quinolin-2(1H)-one [Compound 113] |  | na (na = not active (i.e. efficacy of <20 and potency of >10,000)) |  |  | 65% | > 10000 nM | 529 nM | 316 nM |  |  |
| 5-Allyl-6-methyl-4-trifluoromethyl-7H-pyrrolo[3,2-f]quinolin-2(1H)-one [Compound 114] |  | na (na = not active (i.e. efficacy of <20 and potency of >10,000)) |  |  | 81% | > 10000 nM | 81 nM | 6.6 nM |  |  |
| O=c1cc(C(F)(F)F)c2cc3c(cc2[nH]1)c1c(n3CC(F)(F)F)CCC1 [Compound 159, 6-(2,2,2-Trifluoroethyl)-4-trifluoromethyl-6,7,8,9-tetrahydrocyclopentano[i]pyrrolo[2,3-g]quinolin-2(1H)-one] | > 10000 nM | na (na = not active (i.e. efficacy of <20 and potency of >10,000)) | 989 nM | 15 nM | 66% |  |  |  |  |  |
| 6-(1-Methoxyethyl)-5-methyl-7-(2,2,2-trifluoroethyl)-4-trifluoromethyl-7H-pyrrolo[3,2-f]quinolin-2(1H)-one [Compound 172] |  | 89% |  |  | na (na = not active (i.e. efficacy of <20 and potency of >10,000)) | 19 nM | 12 nM | > 10000 nM |  |  |
| CCc1[nH]c2c(ccc3[nH]c(=O)cc(C(F)(F)F)c32)c1C [Compound 175, 6-Ethyl-7-methyl-4-trifluoromethyl-5H-pyrrolo[2,3-f]quinolin-2(1H)-one] | > 10000 nM | na (na = not active (i.e. efficacy of <20 and potency of >10,000)) | 239 nM | 11 nM | 78% |  |  |  |  |  |
